Experimental data taken from patent US11666561B2, “Compounds for use in regulating follicle maturation” (AARHUS UNIVERSITET, priority 2017, dated 2023).
Entries after “also recorded” stand apart in the source; their conditions may differ. Structures can show the parent of a compound that is named as a salt.

System: primordial-to-primary follicle transition
Experiment: In vitro organ culture of mouse ovaries with compound, H&E histology and counting of primordial, primary and secondary follicles
Settings: for effect on primordial-to-primary follicle transition / primordial follicle activation: in vitro cultured mouse ovaries, concentration not given
Method: Ovaries obtained from mice were washed twice with culture medium. Antagonists or agonists to be tested were dissolved in suitable solvents and added to the medium. As a control medium comprising solvent without the antagonist or agonist was used. One of the ovaries was cultured in a control medium and another was cultured with the antagonist or agonist. The tested antagonists or agonists and their concentrations are outlined in table 2.
Ovaries were incubated with antagonist at 37° C. and 5% CO2 for 24 and 96 hours, respectively (see table 3).
Cultures ovaries were fixed, embedded in paraffin and sliced microscopy. The sectioned ovaries were stained with hematoxylin and eosin (H&E) to visualize the morphology of the ovary by microscopy.
The number of primordial, primary and secondary follicles was determined, and it was determined whether the antagonist or agonist was capable of regulating folliculogenesis.
C57BL/6j×CBA F1 hybrid mice (Janvier Labs, France) were housed and bred in the animal facilities at Department of Biomedicine, Aarhus University. Animals were housed in a 12:12 h controlled light-dark environment and were provided with food and water ad libitum. 7-day-old female pups were used for the study.
Pups were sacrificed and ovaries were excised. Using a stereomicroscope MZ75 (Leica Microsystems, Germany), excess tissue was removed. During the dissection, ovaries were kept at 37° C. in culture medium: aMEM (Thermo Fisher) supplemented with 10% FBS (Thermo Fisher), 100 mIU/mL of FSH (Sigma-Aldrich), 100 IU/mL penicillin (Thermo Fisher), 100 μg/mL streptomycin (Thermo Fisher) and 1% Insulin-Transferrin-Selenium (Thermo Fisher). Isolated ovaries were transferred into well inserts (PET membrane ThinCert, 0.4 μm-pore size; Greiner bio-one) in 24-well plates (Tissue culture treated, cell culture plates; Costar). 200-300 μL of culture medium was added to the well below the insert and up to two ovaries were placed on the membrane of each insert. The culture medium was supplemented with different concentrations of the tested compounds; bpV(HOpic) (Sigma-Aldrich), Temsirolimus (Sigma-Aldrich), Ketotifen (Sigma-Aldrich), 3PO (Sigma-Aldrich), Dorsomorphin (Sigma-Aldrich), AICAR (Sigma-Aldrich), NCG (Sigma-Aldrich), and Dyphylline (Cayman Chemical). Up to six wells in the 24-well plate were used for inserts. Sterile dH2O was added to the rest of the wells to ensure humidity and reduce evaporation. The ovaries were cultured at 37° C., 5% CO2 for four days. 150 μL of medium was replaced every other day with fresh culture medium.
Ovaries kept in organ culture for four days were fixed for 24 hours in 4% paraformaldehyde solution at 4° C. After fixation, ovaries were dehydrated in ethanol series using 70%, 96% and 99.9% ethanol. Xylene was used as clearing agent before the ovaries were infiltrated in paraffin wax. 5 μm-sections of samples in paraffin were cut using a microtome (Cut 6062, SLEE medical, Germany). Paraffin sections were mounted on glass slides, paraffin was melted at 60° C., and the samples were stained with hematoxylin and eosin (using standard protocols).
The samples were deparaffinized by incubating in xylene for 2×15 min. and subsequently rehydrated in series of ethanol; 3×2 min. in 99.9% ethanol, 2 min. in 96% ethanol, and 2 min. in 70% ethanol. The samples were then rinsed in dH2O, stained in hematoxylin for 40 sec., rinsed in dH2O for 5 min., and stained in eosin for 46 sec. The samples were dehydrated in ethanol: 2×2 min. in 96% ethanol, 2×2 min in 99.9% ethanol, and finally cleared up in xylene for at least 30 min before mounting the samples using Eukitt mounting medium (Sigma-Aldrich) and cover glass.
The number of follicles at each developmental stage was counted using an inverted research microscope (DM14000B, Leica Microsystems, Germany). The follicles of every 3rd to 4th section of each ovary were counted and the distribution of follicles in the different stages in percentage was determined.

[1] = Table 1, effect with a figure cited
[2] = Table 2, effect with a figure cited
[3] = 1.0 μM Trigonellin hydrochloride, 96 hours

Row | Molecule | Effect (Table 1, marked (ongoing)) | Effect (Table 2, marked (ongoing)) | other results
1 | CC(C)c1cc(CNc2nc(Nc3cc(C4CC4)[nH]n3)cc(N3CCN(C)CC3)n2)on1 [XL228, 4-N-(5-cyclopropyl-1H-pyrazol-3-yl)-6-(4-methylpiperazin-1-yl)-2-N-[(3-propan-2-yl-1,2-oxazol-5-yl)methyl]pyrimidine-2,4-diamine] | promotes | promotes | –
2 | Cn1c(=O)c2c(ncn2CC(O)CO)n(C)c1=O (stereo not drawn) [Dyphylline, 7-(2,3-dihydroxypropyl)-1,3-dimethylpurine-2,6-dione] | – | – | effect on follicle distribution (10 and 100 μM Dyphylline, 96 hours, number too small for statistics): has the potential to activate primordial follicle distribution; Effect [1]: Promotes; Effect [2]: Promotes; effect on primordial-to-primary follicle transition / primordial follicle activation: activation of primordial follicles
3 | CC1(C)CCC2(CC1)N[C@@H](C(=O)N[C@@H]1CC[C@@H](C(N)=O)OC1)[C@H](c1ccnc(Cl)c1F)[C@]21C(=O)Nc2cc(Cl)ccc21.Cc1ccc(S(=O)(=O)O)cc1 [DS-3032b, L-Erythro-hexonamide, 2,6-anhydro-5-((((3′R,4'S,5′R)-6″-chloro-4′-(2-chloro-3-fluoro-4-pyridinyl)-1″,2″-dihydro-4,4-dimethyl-2″-oxodispiro(cyclohexane-1,2′-pyrrolidine-3′,3″-(3H)indol)-5′-yl)carbonyl)amino)-3,4,5-trideoxy-, 4-methylbenzenesulfon] | promotes | promotes | –
4 | CCOc1cc(C(C)(C)C)ccc1C1=N[C@@](C)(c2ccc(Cl)cc2)[C@@](C)(c2ccc(Cl)cc2)N1C(=O)N1CCN(CCCS(C)(=O)=O)CC1 [RO5045337, [(4S,5R)-2-(4-tert-butyl-2-ethoxyphenyl)-4,5-bis(4-chlorophenyl)-4,5-dimethylimidazol-1-yl]-[4-(3-methylsulfonylpropyl)piperazin-1-yl]methanone] | promotes | promotes | –
5 | CCOc1cc2ncc(C#N)c(Nc3ccc(OCc4ccccn4)c(Cl)c3)c2cc1NC(=O)/C=C/CN(C)C [AVE1642, (E)-N-[4-[3-chloro-4-(pyridin-2-ylmethoxy)anilino]-3-cyano-7-ethoxyquinolin-6-yl]-4-(dimethylamino)but-2-enamide] | promotes | promotes | –
6 | CN(C)C(=N)N=C(N)N [Metformin, N,N-Dimethylimiddicarbonimiddiamid] | promotes | promotes | –
7 | COc1cc(C(=O)O)ccc1NC(=O)[C@@H]1N[C@@H](CC(C)(C)C)[C@](C#N)(c2ccc(Cl)cc2F)[C@H]1c1cccc(Cl)c1F [Idasanutlin, 4-{[(3S,4R,5S)-3-(3-Chloro-2-fluorophenyl)-4-(4-chloro-2-fluorophenyl)-4-cyano-5-(2,2-dimethylpropyl)-D-prolyl]amino}-3-methoxybenzoic acid] | promotes | promotes | –
8 | C=CC(=O)N1CCC(Oc2cc3c(Nc4ccc(Cl)c(Cl)c4F)ncnc3cc2OC)CC1 [Poziotinib, 1-[4-[4-(3,4-dichloro-2-fluoroanilino)-7-methoxyquinazolin-6-yl]oxypiperidin-1-yl]prop-2-en-1-one] | promotes | promotes | –
9 | Cc1cn(-c2cc(NC(=O)c3ccc(C)c(Nc4nccc(-c5cccnc5)n4)c3)cc(C(F)(F)F)c2)cn1 [Pirotinib, 4-methyl-N-[3-(4-methylimidazol-1-yl)-5-(trifluoromethyl)phenyl]-3-[(4-pyridin-3-ylpyrimidin-2-yl)amino]benzamide] | promotes | promotes | –
10 | C[C@H]1Cc2ccccc2N1C(=O)Cc1nc(N2CCOCC2)cc(=O)[nH]1 [SAR260301, (S)-2-(2-(2-Methylindolin-1-yl)-2-oxoethyl)-6-morpholinopyrimidin-4(3H)-one] | promotes | promotes | –
11 | CS(=O)(=O)N1CCN(Cc2cc3nc(-c4cccc5[nH]ncc45)nc(N4CCOCC4)c3s2)CC1 [Pictilisib, 2-(1H-indazol-4-yl)-6-(4-methanesulfonylpiperazin-1-ylmethyl)-4-morpholin-4-ylthieno(3,2-d)pyrimidine] | promotes | promotes | –
12 | CCCCNC(=O)NS(=O)(=O)c1ccc(C)cc1 [Tolbutamide, 1-butyl-3-(4-methylphenyl)sulfonylurea] | promotes | promotes | –
13 | Cixutumumab: fully human IgG1 monoclonal antibody directed against the human insulin-like growth factor-1 receptor | promotes | promotes | –
14 | COc1cc([C@@H]2c3cc4c(cc3[C@H](O)[C@H]3COC(=O)[C@@H]23)OCO4)cc(OC)c1OC [Picropodophyllin, (5R,5aR,8aS,9R)-5-hydroxy-9-(3,4,5-trimethoxyphenyl)-5a,6,8a,9-tetrahydro-5H-[2]benzofuro[5,6-f][1,3]benzodioxol-8-one] | promotes | promotes | –
15 | NC(=O)c1ncn([C@@H]2O[C@H](CO)[C@@H](O)[C@H]2O)c1N [AICAR, 5-aminoimidazole-4-carboxamide-1β-D-ribofuranoside] | – | – | follicles (stage not given; activation of primordial follicles inhibited) (0.5 mM AICAR (n=1), data not shown): 83.83±3.06%; primary follicles (1 mM AICAR, four days): 10.82±4.98%; primordial follicles (1 mM AICAR, four days): 86.02±5.84%; secondary follicles (1 mM AICAR, four days): 3.0±3.09%; health of growing follicles in treated ovaries (AICAR 0.1-1 mM, four days): growing follicles within the ovary tended to appear unhealthy; also recorded: too harsh for the growing follicles; Effect [1]: promotes; Effect [2]: promotes; effect on primordial-to-primary follicle transition / primordial follicle activation: suppress the primordial-to-primary follicle transition
16 | C[n+]1cccc(C(=O)[O-])c1 [Trigonellin hydrochloride] | – | – | decrease in the average numbers of primordial follicles compared to the control [3]: ~20%; increase compared to the control (follicle stage not given) [3]: ~74%
17 | O=C1C=C/C(=C(/[O-])O)N=C1.[K+].[O-][O-].[O-][O-].[O]=[V] [bpV(HOpic)] | – | – | effect on primordial-to-primary follicle transition / primordial follicle activation: increase the rate of primordial-to-primary transition
18 | COc1ccc(Cl)c(Nc2nc3ccccc3nc2NS(=O)(=O)c2cccc(NC(=O)C(C)(C)N)c2)c1 [XI147, 2-amino-N-[3-({3-[(2-chloro-5-methoxyphenyl)amino]quinoxalin-2-yl}sulfamoyl)phenyl]-2-m] | promotes | promotes | –
19 | COc1cc2c(cc1OC(C)C)[C@H](c1ccc(Cl)cc1)N(c1ccc(N(C)CC3CCC(N4CCN(C)C(=O)C4)CC3)cc1)C(=O)C2 (stereo partly drawn) [CGM097, (1S)-1-(4-chlorophenyl)-6-methoxy-2-[4-[methyl-[[4-(4-methyl-3-oxopiperazin-1-yl)cyclohexyl]methyl]amino]phenyl]-7-propan-2-yloxy-1,4-dihydroisoquinolin-3-one] | promotes | promotes | –
20 | CN(C)C/C=C/C(=O)Nc1cc2c(Nc3ccc(F)c(Cl)c3)ncnc2cc1O[C@H]1CCOC1 [Afatinib, (E)-N-[4-(3-chloro-4-fluoroanilino)-7-[(3S)-oxolan-3-yl]oxyquinazolin-6-yl]-4-(dimethylamino)but-2-enamide] | promotes | promotes | –
21 | Nc1cc(-c2ccncc2)c[nH]c1=O [Amrinone, 3-amino-5-pyridin-4-yl-1H-pyridin-2-one] | promotes | promotes | –
22 | O=C1CCc2cc(OCCCCc3nnnn3C3CCCCC3)ccc2N1 [Cilostazol, 6-[4-(1-cyclohexyltetrazol-5-yl)butoxy]-3,4-dihydro-1H-quinolin-2-one] | promotes | promotes | –
